{"source": "patent US11559526B2", "about": "“Drug effective for lymphogenous drug administrating method” (TOHOKU UNIVERSITY, priority 2016, dated 2023)", "key": {"KM-Luc/GFP cells": {"test_system": "KM-Luc/GFP cells", "test": "Anticancer activity after administration into the accessory axillary lymph node, mouse model of proper axillary lymph node metastasis (KM-Luc/GFP), luciferase imaging", "type": "in vivo", "parameters": "key to Luciferase activity ratio calculated by Expression 3: day9/day6 normalized luciferase ratio, 0 μg/g set to 100", "details": "for Luciferase activity ratio calculated by Expression 3: 0 μg/g set to 100", "protocol": "As a mouse model of lymphadenopathy, MXH10/Mo/lpr/lpr (MXH10/Mo/lpr) mice were prepared in accordance with the method previously reported (J Immunol Methods 2013; 389 (1-2): 69-78 doi 10.1016/j.jim.2013.01.004). In the following Examples, in total, 5 male and female model mice aged 15 to 18 weeks were used.\nMouse fibroblast-derived KM-Luc/GFP cells were prepared in accordance with the method previously reported (PLoS One 2013; 8 (2): e55797 doi 10.1371/journal.pone.0055797). The KM-Luc/GFP cells were obtained by transfecting MRL/MpTn-gld/gld mouse fibroblast-derived cancer cells, MRL/N1 cells, with pEGFPLuc plasmid. The KM-Luc/GFP cells constantly express a luciferase gene and a green fluorescent gene. In the following Examples, the cells were cultured in Dulbecco's modified Eagle's medium (manufactured by Sigma-Aldrich) containing 10% FBS (fetal bovine serum), 1% L-Glutamine-P.S. solution (manufactured by Thermo Fisher Scientific) and 0.5% G418 and put in use.\n(§1) KM-Luc/GFP (cancer) cells, which were prepared by thawing the cells stored at −80° C. and thereafter sub-culturing them twice in total, were suspended in PBS (phosphate buffered saline) and the concentration thereof was controlled to be 1.0×10^6 cells/mL. Thereafter, the cell suspension was mixed with Matrigel (basement membrane matrix, manufactured by Becton, Dickinson and Co.) and diluted to a concentration of 3.3×10^5 cells/mL, and then, the resultant (60 μL) was inoculated into mouse subiliac lymph node (FIG. 1). The day when the cancer cells were inoculated was specified as day 0.\n(§2) Using a biological fluorescence imaging system (IVIS manufactured by Caliper Life Science), the growth rates of cancer cells in the subiliac lymph node and proper axillary lymph node were determined on day 0, day 6 and day 9 after inoculation of the cancer cells. 200 μL of luciferin (manufactured by Promega), the concentration of which was controlled to be 15 mg/mL, was injected into the abdominal cavity of the mouse. Ten minutes later, luciferase activity was determined using the IVIS.\nOf the mice on day 6 after cancer cell inoculation, mice having a luciferase activity of 1.0×10^6 photons/sec or more in the proper axillary lymph node were selected, and 120 μL of 5-FU was administered to the accessory axillary lymph node at a rate of 10 μL/min by use of a syringe pump (KDS100, manufactured by Muromachi) (FIG. 1).\nThe luciferase activities on day 6 and day 9 were normalized in accordance with the following [Expression 1]. Thereafter, the ratio of the normalized luciferase activity on day 9 to that on day 6 was calculated in accordance with the following [Expression 2]. The ratio of the normalized luciferase activity on day 9 to that on day 6 at each administration concentration of 5-FU, when the ratio of the normalized luciferase activity on day 9 to that on day 6 at administration of 0 μg/g was set to 100, was calculated in accordance with the following [Expression 3]. Normalized luciferase activity on day 6 or day 9=((luciferase activity on day 6 or day 9)/(luciferase activity on day 0)) [Expression 1] Ratio of normalized luciferase activity on day 9 to that on day 6=((normalized luciferase activity on day 9)/(normalized luciferase activity on day 6)) [Expression 2] Ratio of normalized luciferase activity on day 9 to that on day 6 at each administration concentration of 5-FU, when the ratio of normalized luciferase activity on day 9 to that on day 6 at administration of 0 μg/g was set to 100,=((ratio of normalized luciferase activity on day 9 to that on day 6 at each administration concentration of 5-FU)/(ratio of normalized luciferase activity on day 9 to that on day 6 at administration of 0 μg/g)×100) [Expression 3] 3. Results […]\nThe same method as in Example 1 was employed except that the test drug to be administered to the accessary axillary lymph node was changed to doxorubicin."}, "FM3A-Luc cells": {"test_system": "FM3A-Luc cells", "test": "Anticancer activity of docetaxel administered into a lymph node, mouse model of proper axillary lymph node metastasis (FM3A-Luc), luciferase imaging", "type": "in vivo", "details": "for Luciferase activity ratio calculated by Expression 6 (day 6^T): day 6^T to day −1^T", "protocol": "Mouse breast cancer cell-derived FM3A-Luc cells were prepared in accordance with the method previously reported (J Immunol Methods 2013 Mar 29; 389 (1-2): 69-78. doi: 10.1016/j.jim.2013.01.004.). The FM3A-Luc cells were obtained by gene-introduction of pGL4.51 into FM3A cells by means of electroporation and constantly express a luciferase gene. In the following Examples, the cells were cultured in RPMI-1640 (manufactured by Sigma-Aldrich) containing 10% FBS (fetal bovine serum), 1% of an L-Glutamine-P.S. solution (manufactured by Theimo Fisher Scientific) and 0.5% of G418 and put in use.\nAs docetaxel, taxotere for intravenous infusion, 80 mg (manufactured by Sanofi K. K.) was used. Taxotere for intravenous infusion 80 mg (2 mL) was dissolved in 13% ethanol (6 mL) to prepare a 10 mg/mL stock solution. Thereafter, the stock solution was dissolved with sterile water in such a way that the concentration per mouse body-weight became 0 μg/g, 1 μg/g and 10 μg/g.\nas §1, with “FM3A-Luc (cancer) cells,” for “KM-Luc/GFP (cancer) cells,”, “thawing the cancer cells stored” for “thawing the cells stored”, “were suspended with PBS (phosphate” for “were suspended in PBS (phosphate”, “and diluted up to a” for “and diluted to a”\nas §2, with “7, day 14, day 17, day 20, day 23, day 26” for “6”, “29” for “9”\nTo a mouse confirmed to have a luciferase activity of 1.0×10^6 photons/sec or more in the proper axillary lymph node, docetaxel (120 μL) was administered to the accessory axillary lymph node on the day following confirmation at a rate of 10 μL/min by use of a syringe pump (KDS100, manufactured by Muromachi) (FIG. 1).\nThe day when docetaxel was administered was defined as day 0^T. The luciferase activity on day 3^T (3 days after administration of docetaxel) and the luciferase activity on day 6^T (6 days after administration of docetaxel) were normalized in accordance with the following [Expression 4]. Thereafter, the ratio of the normalized luciferase activity on day 3^T or day 6^T to that on day −1^T (the day when the luciferase activity in the proper axillary lymph node was confirmed to be 1.0×10^6 photons/sec or more and the day before docetaxel administration) was calculated in accordance with the following [Expression 5]. The ratio of the normalized luciferase activity on day 3^T or day 6^T to that on day −1^T at each administration concentration of docetaxel, when the ratio of the normalized luciferase activity on day 3^T or day 6^T to that on day −1^T at administration of 0 μg/g was set to 100, was calculated in accordance with the following [Expression 6]. […]"}, "cancer cell strain": {"test_system": "cancer cell strain", "details": "cited from earlier work"}, "[1]": {"test_system": "cancer-containing proper axillary lymph node (PALN)", "details": "administration through the subiliac lymph node (SiLN); cited from earlier work"}, "[2]": {"details": "0.1 μg/g into accessory axillary lymph node, day 9 to day 6 ratio in proper axillary lymph node"}, "[3]": {"details": "1 μg/g into accessory axillary lymph node, day 9 to day 6 ratio"}, "[4]": {"details": "10 μg/g into accessory axillary lymph node, day 9 to day 6 ratio"}}, "note": "Counter-ions that a name gives are not always drawn.", "data": [{"compound": "O=c1[nH]cc(F)c(=O)[nH]1", "note": "[5-FU, 5-fluorouracil]", "values": [{"measurement": "Luciferase activity ratio calculated by Expression 3", "setting": "KM-Luc/GFP cells; [2]", "result": 9.27}, {"measurement": "Luciferase activity ratio calculated by Expression 3", "setting": "KM-Luc/GFP cells; [3]", "result": 9.12}, {"measurement": "Luciferase activity ratio calculated by Expression 3", "setting": "KM-Luc/GFP cells; [4]", "result": 1.49}, {"measurement": "tumor regression effect", "setting": "KM-Luc/GFP cells; dose 0.1 μg/g", "result": "≥ 90", "unit": "%"}]}, {"compound": "CCc1c2c(nc3ccc(OC(=O)N4CCC(N5CCCCC5)CC4)cc13)-c1cc3c(c(=O)n1C2)COC(=O)[C@]3(O)CC", "note": "[CPT-11, irinotecan hydrochloride]", "values": [{"measurement": "Luciferase activity ratio calculated by Expression 3", "setting": "KM-Luc/GFP cells; 0.5 μg/g into accessory axillary lymph node, day 9 to day 6 ratio", "result": 6.06}, {"measurement": "Luciferase activity ratio calculated by Expression 3", "setting": "KM-Luc/GFP cells; 5 μg/g into accessory axillary lymph node, day 9 to day 6 ratio", "result": 3.03}, {"measurement": "tumor regression effect", "setting": "KM-Luc/GFP cells; dose 0.5 μg/g", "result": "≥ 90", "unit": "%"}]}, {"compound": "CC(=O)O[C@@]12CO[C@@H]1C[C@H](O)[C@@]1(C)C(=O)[C@H](O)C3=C(C)[C@@H](OC(=O)[C@H](O)[C@@H](NC(=O)OC(C)(C)C)c4ccccc4)C[C@@](O)([C@@H](OC(=O)c4ccccc4)[C@H]21)C3(C)C", "note": "[Docetaxel, docetaxel]", "values": [{"measurement": "Luciferase activity ratio calculated by Expression 6 (day 6^T)", "setting": "FM3A-Luc cells; 1 μg/g into accessory axillary lymph node, 0 μg/g set to 100", "result": 7.5}, {"measurement": "Luciferase activity ratio calculated by Expression 6 (day 3^T)", "setting": "FM3A-Luc cells; 10 μg/g into accessory axillary lymph node, day 3^T to day −1^T, 0 μg/g set to 100", "result": 16.2}, {"measurement": "Luciferase activity ratio calculated by Expression 6 (day 6^T)", "setting": "FM3A-Luc cells; 10 μg/g into accessory axillary lymph node, 0 μg/g set to 100", "result": 1.7}, {"measurement": "tumor regression effect", "setting": "FM3A-Luc cells; dose 1 μg/g, day 6 after initiation of treatment", "result": "≥ 90", "unit": "%"}, {"measurement": "tumor reduction ratio", "setting": "FM3A-Luc cells; dose 10 μg/g", "result": "≥ 80", "unit": "%"}, {"measurement": "cell growth inhibitory activity of docetaxel compared with doxorubicin", "setting": "cancer cell strain", "result": "almost equal to that of doxorubicin"}]}, {"compound": "COc1cccc2c1C(=O)c1c(O)c3c(c(O)c1C2=O)C[C@@](O)(C(=O)CO)C[C@@H]3O[C@H]1C[C@H](N)[C@H](O)[C@H](C)O1", "note": "[Doxorubicin, doxorubicin hydrochloride]", "values": [{"measurement": "Luciferase activity ratio calculated by Expression 3", "setting": "KM-Luc/GFP cells; [2]", "result": 40.9}, {"measurement": "Luciferase activity ratio calculated by Expression 3", "setting": "KM-Luc/GFP cells; [3]", "result": 43.2}, {"measurement": "Luciferase activity ratio calculated by Expression 3", "setting": "KM-Luc/GFP cells; [4]", "result": 75.0}, {"measurement": "best tumor reduction ratio", "setting": "KM-Luc/GFP cells; dose 1 μg/g", "result": "less than 60%"}, {"measurement": "tumor reduction ratio", "setting": "KM-Luc/GFP cells; dose 10 μg/g", "result": "about 25%"}, {"measurement": "anticancer effect in the proper axillary lymph node", "setting": "[1]", "result": "resulted in an anticancer effect"}, {"measurement": "cell growth inhibitory activity (GI50 value) of doxorubicin, times as high as those of 5-FU and CPT-11", "setting": "cancer cell strain", "result": "10 to 1,000 times"}]}]}
